Source: the supplement of paper PMC10307832

Columns and labels:
Assay in all cases: relative viability (nuclei count vs DMSO), 5 days (fraction); higher = more cells survive
[1] = compound: CC1=C(C(=O)N2C=CSC2=N1)CCN3CCC(=C(C4=CC=CC=C4)C5=CC=C(C=C5)F)CC3 + CC(=O)Nc1cccc(-n2c(=O)n(C3CC3)c(=O)c3c(Nc4ccc(I)cc4F)n(C)c(=O)c(C)c32)c1 [Trametinib] (partner 0.02 µM)
Summary of the method: (§1)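 One day after seeding in 1536-well plates, lung cancer cell lines were dosed by pin tool. Dosing was either single-drug or a fixed anchor-drug dose plus five library-drug doses (not always all listed) in √10 steps. After 5 days, nuclei were stained in one fix-and-stain step and counted on 4× images, and relative viability is the nuclei count of treated wells over that of vehicle wells, given as the median of duplicate plates.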

[2] = compound: CC1=C(C(=O)N2C=CSC2=N1)CCN3CCC(=C(C4=CC=CC=C4)C5=CC=C(C=C5)F)CC3 + CS(=O)(=O)CCNCc1ccc(-c2ccc3ncnc(Nc4ccc(OCc5cccc(F)c5)c(Cl)c4)c3c2)o1 [Lapatinib] (partner 2 µM)
Summary of the method: as §1

[3] = compound: CC1=C(C(=O)N2C=CSC2=N1)CCN3CCC(=C(C4=CC=CC=C4)C5=CC=C(C=C5)F)CC3 + COc1cccc2cc(-c3nc([C@H]4CC[C@H](C(=O)O)CC4)n4ncnc(N)c34)[nH]c12 [OSI-027] (partner 0.5 µM)
Summary of the method: as §1

[4] = compound: CC1=C(C(=O)N2C=CSC2=N1)CCN3CCC(=C(C4=CC=CC=C4)C5=CC=C(C=C5)F)CC3 + C[C@]1(O)C[C@@H](c2nc(-c3ccc4ccc(-c5ccccc5)nc4c3)c3c(N)nccn32)C1 [Linsitinib] (partner 1 µM)
Summary of the method: as §1

Row | Cell Line | relative viability ([1]; first compound 0.08 µM) | relative viability ([1]; first compound 0.253 µM) | relative viability ([1]; first compound 0.8 µM) | relative viability ([1]; first compound 2.53 µM) | relative viability ([1]; first compound 8 µM) | relative viability ([2]; first compound 0.08 µM) | relative viability ([2]; first compound 0.253 µM) | relative viability ([2]; first compound 0.8 µM) | relative viability ([2]; first compound 2.53 µM) | relative viability ([2]; first compound 8 µM) | relative viability ([3]; first compound 0.08 µM) | relative viability ([3]; first compound 0.253 µM) | relative viability ([3]; first compound 0.8 µM) | relative viability ([3]; first compound 2.53 µM) | relative viability ([3]; first compound 8 µM) | relative viability ([4]; first compound 0.08 µM) | relative viability ([4]; first compound 0.253 µM) | relative viability ([4]; first compound 0.8 µM) | relative viability ([4]; first compound 2.53 µM) | relative viability ([4]; first compound 8 µM)
1 | 201T | 0.7 | 0.749 | 0.709 | 0.75 | 0.722 | 1.12 | 1.08 | 0.999 | 1.09 | 1.11 | 0.579 | 0.663 | 0.81 | 0.842 | 0.695 | 1.05 | 1.01 | 1 | 1.08 | 1.13
2 | A549 |  |  |  |  |  | 1.06 | 0.884 | 0.922 | 1.23 | 0.797 |  |  |  |  |  |  | 0.61 | 0.658 | 0.432 | 0.309
3 | A-427 | 0.762 | 0.686 | 0.712 | 0.818 | 0.681 | 1.12 | 0.962 | 0.994 | 1.15 | 1.08 | 0.421 | 0.364 | 0.421 | 0.49 | 0.432 | 1.06 | 1.05 | 1.13 | 1.17 | 0.959
4 | ABC-1 |  |  |  |  |  | 1.11 | 1.18 | 1.14 | 1.3 | 0.674 | 0.547 | 0.394 | 0.434 | 0.372 | 0.266 | 0.655 | 0.894 | 0.723 | 1.02 | 0.504
5 | BEN | 0.798 | 1.13 | 1.06 | 1.16 | 0.944 | 0.507 | 0.626 | 0.798 | 0.757 | 0.53 | 0.294 | 0.311 | 0.283 | 0.318 | 0.278 | 0.781 | 0.967 | 1.07 | 0.847 | 0.79
6 | CAL-12T | 0.262 | 0.281 | 0.267 | 0.338 | 0.3 |  | 0.588 | 0.754 | 0.668 | 0.644 | 0.826 | 0.718 | 0.603 | 0.586 | 0.428 | 0.451 | 0.894 | 0.833 | 0.676 | 0.634
7 | COR-L23 | 0.748 | 0.612 | 0.5 | 0.731 | 0.372 | 1.13 | 1.1 | 1.12 | 0.921 | 0.638 | 0.778 | 0.667 | 0.702 | 0.778 | 0.619 | 0.84 | 0.915 | 1.04 | 1.13 | 0.505
8 | COR-L 105 | 0.417 | 0.459 | 0.405 | 0.495 | 0.43 | 0.33 | 0.443 | 0.336 | 0.379 | 0.401 | 0.682 | 0.726 | 0.695 | 0.835 | 0.644 | 0.892 | 0.832 | 1.05 | 0.96 | 0.597
9 | Calu-6 |  |  |  |  |  | 1.04 | 0.925 | 1.1 | 1.4 | 0.817 |  |  |  |  |  | 0.927 | 1.14 | 0.975 | 0.875 | 0.464
10 | ChaGo-K-1 | 0.821 | 0.926 | 0.961 | 0.963 | 0.673 |  |  |  |  |  | 0.595 | 0.636 | 0.533 | 0.584 | 0.489 |  |  |  |  | 
11 | EBC-1 |  |  |  |  |  | 0.196 |  | 0.212 | 0.191 | 0.225 |  |  |  |  |  | 0.787 | 0.804 | 1.1 | 0.763 | 0.62
12 | EKVX | 0.354 | 0.42 | 0.358 | 0.314 | 0.292 | 0.173 | 0.227 | 0.194 | 0.19 | 0.231 | 0.46 | 0.708 | 0.777 | 0.744 | 0.545 | 0.999 | 1.05 | 1.09 | 0.951 | 0.839
13 | EMC-BAC-2 | 1 |  | 0.931 | 0.926 | 0.858 | 0.744 | 0.924 | 0.89 | 0.877 | 0.773 | 0.35 | 0.353 | 0.372 | 0.37 | 0.291 | 0.8 | 0.804 | 0.882 | 0.825 | 0.627
14 | EPLC-272H | 0.379 | 0.295 | 0.305 | 0.281 | 0.255 |  | 0.921 | 0.809 | 1.09 | 0.873 | 0.26 | 0.282 | 0.316 | 0.262 | 0.235 |  | 1.17 | 1.2 | 1.09 | 0.984
15 | H3255 | 0.611 | 0.577 | 0.66 | 0.613 | 0.417 | 0.221 | 0.32 | 0.249 | 0.309 | 0.246 | 0.474 | 0.572 | 0.65 | 0.594 | 0.512 | 1 | 0.888 | 1.02 | 1.03 | 0.726
16 | HARA | 0.982 | 0.567 | 0.746 | 0.368 | 0.551 | 1.01 | 1.06 | 0.873 | 0.82 | 0.625 | 0.379 | 0.577 | 0.534 | 0.454 | 0.275 | 0.956 | 1.09 | 1.08 | 0.917 | 0.54
